Converted amounts (≈) assume the structure as drawn. Like-named read-outs stand apart in the source and are kept apart here. One block for each compound: values may come before it.
How the values were obtained:
Test in all cases: MIC by double agar dilution method, clinical isolates
Format in all cases: cell-based
Escherichia coli = tested on: Escherichia coli
Method: (§1) Strain: Pathogenic bacteria isolated from clinical laboratory collected from Sichuan, Beijing, 2002.4˜2003.9, assessed using the method of API in our laboratory.
(§2) Test the minimum inhibitory concentration (MIC) of the tested drug against the strains using the double agar dilution method. The tested drug was dissolved in sterile purified water and diluted properly. The drug-containing petri dishes were prepared by spiking 1 ml drug conclusion with melted 9 ml Tris —HCl agarose solid medium, using agar twofold dilution method and obtained the concentration of 4, 2, 1, 0.5, 0.25, 0.125, 0.06, 0.03 . . . 0.001 mg/ml. The strain solution of 10^5 CFU/ml was inoculated on the petri dishes using the multipoint inoculator, cultured for 8-10 h at 37° C., covered the petri dishes using melted 6 ml M-H Medium (50° C.) respectively, cultured for 10 h at 37° C. The minimal concentration of the drug-containing petri dishes which had no bacterium growth was the minimal inhibitory concentration (MIC).

Klebsiella pneumoniae = tested on: Klebsiella pneumoniae
Method: as §1, §2

Propionibacterium = tested on: Propionibacterium
Method: as §1, §2

Serratia marcescens = tested on: Serratia marcescens
Method: as §1, §2

[1] = tested on: Staphylococcu epidermidis
Method: as §1, §2

Staphylococcus aureus = tested on: Staphylococcus aureus
Method: as §1, §2

[2] = Escherichia coli 03-2-41, read-out: MIC
[3] = Escherichia coli 03-2-42, read-out: MIC
[4] = Escherichia coli 03-2-43, read-out: MIC
[5] = Escherichia coli 03-2-45, read-out: MIC
[6] = Escherichia coli 03-2-51, read-out: MIC
[7] = Escherichia coli 03-2-52, read-out: MIC
[8] = Escherichia coli 03-2-53, read-out: MIC
[9] = Escherichia coli 03-2-54, read-out: MIC
[10] = Escherichia coli 03-2-56, read-out: MIC
[11] = Escherichia coli 03-2-57, read-out: MIC
[12] = Escherichia coli 03-2-58, read-out: MIC
[13] = Serratia marcescens 2-31-8 (first line)
[14] = Serratia marcescens 2-31-8 (second line)
[15] = Serratia marcescens 2-31-8 (third line)
[16] = Staphylococcu epidermidis MRSE02-3
[17] = Staphylococcu epidermidis MRSE02-4
[18] = Staphylococcu epidermidis MRSE02-5
[19] = Staphylococcu epidermidis MRSE02-6
[20] = Staphylococcu epidermidis MRSE02-10
[21] = Staphylococcu epidermidis MRSE02-11
[22] = Staphylococcu epidermidis MRSE02-12
[23] = Staphylococcu epidermidis MRSE02-15
[24] = Staphylococcu epidermidis MRSE02-17
[25] = Staphylococcu epidermidis MRSE02-18
[26] = Staphylococcu epidermidis MRSE02-20
[27] = Staphylococcu epidermidis MRSE02-20-1
[28] = Staphylococcu epidermidis MRSE02-20-2
[29] = Staphylococcu epidermidis MRSE02-20-3
[30] = Staphylococcu epidermidis MRSE02-20-4
[31] = Staphylococcu epidermidis MRSE02-20-5
[32] = Staphylococcu epidermidis MRSE02-20-6
[33] = Staphylococcu epidermidis MRSE02-20-7
[34] = Staphylococcu epidermidis MRSE02-20-8
[35] = Staphylococcu epidermidis MRSE02-20-9
[36] = Staphylococcu epidermidis MRSE02-21
[37] = Staphylococcu epidermidis MRSE02-22
[38] = Staphylococcu epidermidis MRSE02-29
[39] = Staphylococcu epidermidis MssE25
[40] = Staphylococcus aureus MRSA02-22, read-out: MIC
[41] = Staphylococcus aureus MRSA02-23
[42] = Staphylococcus aureus MRSA02-26
[43] = Staphylococcus aureus MRSA02-28

Structure (SMILES): CC[C@H]1OC(=O)[C@H](C)[C@@H](O[C@H]2C[C@@](C)(OC)[C@@H](O)[C@H](C)O2)[C@H](C)[C@@H](O[C@@H]2O[C@H](C)C[C@H](N(C)C)[C@H]2O)[C@](C)(OC)C[C@@H](C)C(=O)[C@H](C)[C@@H](O)[C@]1(C)O [CLA, Clarithromycin]
MIC (Escherichia coli): 125 µg/mL (≈ 167 µM)
MIC (Escherichia coli; [2]): > 1000 µg/mL
MIC (Escherichia coli; [3]): 63 µg/mL (≈ 84.2 µM)
MIC (Escherichia coli; [4]): 16 µg/mL (≈ 21.4 µM)
MIC (Escherichia coli; [5]): 250 µg/mL (≈ 334 µM)
MIC (Escherichia coli; [6]): > 1000 µg/mL
MIC (Escherichia coli; [7]): > 1000 µg/mL
MIC (Escherichia coli; [8]): 30 µg/mL (≈ 40.1 µM)
MIC (Escherichia coli; [9]): > 1000 µg/mL
MIC (Escherichia coli; [10]): 16 µg/mL (≈ 21.4 µM)
MIC (Escherichia coli; [11]): 32 µg/mL (≈ 42.8 µM)
MIC (Escherichia coli; [12]): > 1000 µg/mL
MIC (Klebsiella pneumoniae; Klebsiella pneumoniae 02-6-14): 63 µg/mL (≈ 84.2 µM)
MIC (Klebsiella pneumoniae; Klebsiella pneumoniae 02-6-18): 500 µg/mL (≈ 668 µM)
MIC (Propionibacterium; Propionibacterium 02-7-4): 2 µg/mL (≈ 2.67 µM)
MIC (Propionibacterium; Propionibacterium 02-7-5): < 1 µg/mL
MIC (Propionibacterium; Propionibacterium 02-7-6): 8 µg/mL (≈ 10.7 µM)
MIC (Propionibacterium; Propionibacterium 02-7-7): 32 µg/mL (≈ 42.8 µM)
MIC (Propionibacterium; Propionibacterium 02-7-9): 8 µg/mL (≈ 10.7 µM)
MIC (Propionibacterium; Propionibacterium 03-2-22): 1000 µg/mL (≈ 1340 µM)
MIC (Propionibacterium; Propionibacterium 03-2-30): > 1000 µg/mL
MIC (Propionibacterium; Propionibacterium 03-2-32): 8 µg/mL (≈ 10.7 µM)
MIC (Propionibacterium; Propionibacterium 03-2-33): > 1000 µg/mL
MIC (Propionibacterium; Propionibacterium 03-2-36): 250 µg/mL (≈ 334 µM)
MIC (Propionibacterium; Propionibacterium 03-2-37): > 1000 µg/mL
MIC (Propionibacterium; Propionibacterium 03-2-39): 500 µg/mL (≈ 668 µM)
MIC (Serratia marcescens; [13]): 8 µg/mL (≈ 10.7 µM)
MIC (Serratia marcescens; [14]): 8 µg/mL (≈ 10.7 µM)
MIC (Serratia marcescens; [15]): 16 µg/mL (≈ 21.4 µM)
MIC [1, 16]: > 1000 µg/mL
MIC [1, 17]: 500 µg/mL (≈ 668 µM)
MIC [1, 18]: < 1 µg/mL
MIC [1, 19]: < 1 µg/mL
MIC [1, 20]: 1000 µg/mL (≈ 1340 µM)
MIC [1, 21]: < 1 µg/mL
MIC [1, 22]: 8 µg/mL (≈ 10.7 µM)
MIC [1, 23]: 1000 µg/mL (≈ 1340 µM)
MIC [1, 24]: 250 µg/mL (≈ 334 µM)
MIC [1, 25]: < 1 µg/mL
MIC [1, 26]: > 1000 µg/mL
MIC [1, 27]: < 1 µg/mL
MIC [1, 28]: > 1000 µg/mL
MIC [1, 29]: > 1000 µg/mL
MIC [1, 30]: > 1000 µg/mL
MIC [1, 31]: > 1000 µg/mL
MIC [1, 32]: > 1000 µg/mL
MIC [1, 33]: 1000 µg/mL (≈ 1340 µM)
MIC [1, 34]: < 1 µg/mL
MIC [1, 35]: < 1 µg/mL
MIC [1, 36]: < 1 µg/mL
MIC [1, 37]: < 1 µg/mL
MIC [1, 38]: 30 µg/mL (≈ 40.1 µM)
MIC [1, 39]: < 1 µg/mL
MIC (Staphylococcus aureus; Staphylococcus aureus 02-19-5): >1000 µg/mL
MIC (Staphylococcus aureus; [40]): > 1000 µg/mL
MIC (Staphylococcus aureus; [41]): >1000 µg/mL
MIC (Staphylococcus aureus; [42]): >1000 µg/mL
MIC (Staphylococcus aureus; [43]): >1000 µg/mL

MIC (Escherichia coli; [2]): > 1000 µg/mL
MIC (Escherichia coli; [3]): > 1000 µg/mL
MIC (Escherichia coli; [4]): 250 µg/mL (≈ 299 µM)
MIC (Escherichia coli; [5]): 500 µg/mL (≈ 597 µM)
MIC (Escherichia coli; [6]): > 1000 µg/mL
MIC (Escherichia coli; [7]): 250 µg/mL (≈ 299 µM)
MIC (Escherichia coli; [8]): 250 µg/mL (≈ 299 µM)
MIC (Escherichia coli; [9]): 1000 µg/mL (≈ 1190 µM)
MIC (Escherichia coli; [10]): 250 µg/mL (≈ 299 µM)
MIC (Escherichia coli; [11]): 250 µg/mL (≈ 299 µM)
MIC (Escherichia coli; [12]): 500 µg/mL (≈ 597 µM)
MIC (Escherichia coli; Escherichia coli 03-2-59, read-out: MIC): 250 µg/mL (≈ 299 µM)
MIC (Klebsiella pneumoniae; Klebsiella pneumoniae 02-6-14): > 1000 µg/mL
MIC (Klebsiella pneumoniae; Klebsiella pneumoniae 02-6-18): 1000 µg/mL (≈ 1190 µM)
MIC (Propionibacterium; Propionibacterium 02-7-4): 2 µg/mL (≈ 2.39 µM)
MIC (Propionibacterium; Propionibacterium 02-7-5): < 1 µg/mL
MIC (Propionibacterium; Propionibacterium 02-7-6): 250 µg/mL (≈ 299 µM)
MIC (Propionibacterium; Propionibacterium 02-7-7): 250 µg/mL (≈ 299 µM)
MIC (Propionibacterium; Propionibacterium 02-7-9): 16 µg/mL (≈ 19.1 µM)
MIC (Propionibacterium; Propionibacterium 03-2-22): 1000 µg/mL (≈ 1190 µM)
MIC (Propionibacterium; Propionibacterium 03-2-30): > 1000 µg/mL
MIC (Propionibacterium; Propionibacterium 03-2-32): 500 µg/mL (≈ 597 µM)
MIC (Propionibacterium; Propionibacterium 03-2-33): > 1000 µg/mL
MIC (Propionibacterium; Propionibacterium 03-2-36): 500 µg/mL (≈ 597 µM)
MIC (Propionibacterium; Propionibacterium 03-2-37): 1000 µg/mL (≈ 1190 µM)
MIC (Propionibacterium; Propionibacterium 03-2-39): 1000 µg/mL (≈ 1190 µM)
MIC (Serratia marcescens; [13]): 16 µg/mL (≈ 19.1 µM)
MIC (Serratia marcescens; [14]): 16 µg/mL (≈ 19.1 µM)
MIC (Serratia marcescens; [15]): 16 µg/mL (≈ 19.1 µM)
MIC [1, 16]: > 1000 µg/mL
MIC [1, 17]: > 1000 µg/mL
MIC [1, 18]: < 1 µg/mL
MIC [1, 19]: < 1 µg/mL
MIC [1, 20]: 1000 µg/mL (≈ 1190 µM)
MIC [1, 21]: < 1 µg/mL
MIC [1, 22]: 125 µg/mL (≈ 149 µM)
MIC [1, 23]: > 1000 µg/mL
MIC [1, 24]: > 1000 µg/mL
MIC [1, 25]: < 1 µg/mL
MIC [1, 26]: > 1000 µg/mL
MIC [1, 27]: < 1 µg/mL
MIC [1, 28]: > 1000 µg/mL
MIC [1, 29]: > 1000 µg/mL
MIC [1, 30]: > 1000 µg/mL
MIC [1, 31]: > 1000 µg/mL
MIC [1, 32]: > 1000 µg/mL
MIC [1, 33]: 1000 µg/mL (≈ 1190 µM)
MIC [1, 34]: < 1 µg/mL
MIC [1, 35]: < 1 µg/mL
MIC [1, 36]: < 1 µg/mL
MIC [1, 37]: < 1 µg/mL
MIC [1, 38]: 500 µg/mL (≈ 597 µM)
MIC [1, 39]: < 1 µg/mL
MIC (Staphylococcus aureus; Staphylococcus aureus 02-19-5): >1000 µg/mL
MIC (Staphylococcus aureus; [40]): > 1000 µg/mL
MIC (Staphylococcus aureus; [41]): >1000 µg/mL
MIC (Staphylococcus aureus; [42]): >1000 µg/mL
MIC (Staphylococcus aureus; [43]): >1000 µg/mL
Structure (SMILES): CC[C@H]1OC(=O)[C@H](C)[C@@H](O[C@H]2C[C@@](C)(OC)[C@@H](O)[C@H](C)O2)[C@H](C)[C@@H](O[C@@H]2O[C@H](C)C[C@H](N(C)C)[C@H]2O)[C@](C)(O)C[C@@H](C)/C(=N\OCOCCOC)[C@H](C)[C@@H](O)[C@]1(C)O [ROX, Roxithromycin]

— patent US20070264247A1, “Use of Human Lysozyme in Preparation of Medicine for Treating Acne” (priority 2004, published 2007)
